Measured values taken from patent US20230027361A1, “METTL3 MODULATORS” (priority 2019, published 2023).
Like-named read-outs stand apart in the source and are kept apart here.

Columns and labels:
MOLM-13 cells [1] = test: MOLM-13 96 Hour Cell Proliferation Assay; format: cell-based; settings: Homo sapiens
Experimental: MOLM-13 (DSMZ) cells were seeded at 600 cells per well in a volume of 44 μL in a Greiner Bio-One CELLSTAR™ 384 Well Polystyrene Cell Culture clear bottom microplate in RPMI 1640 media containing 10% fetal bovine serum using a Multidrop Combi (ThermoFisher Scientific). Cells were incubated overnight at 37° C. in a humidified tissue culture incubator. To prevent evaporation or to reduce edge effect, add 50 μL or more H2O to an empty plate, cover, and place on top of the cell plates. The Mosquito® HTS Liquid Handler was used to make a compound/media intermediate plate by aliquoting 1 μL of compound from the initial compound dilution plate (concentrations ranging from 10.0 mM to 38.0 nM in 100% DMSO) into Bio-One 384-well polypropylene conical bottom microplate containing 49 μL of media containing the appropriate serum (50-fold dilution, 2% DMSO, compound concentrations ranging from 200.0 μM and […]). The Apricot liquid handling system was used to transfer 6.2 μL compounds from the intermediate plate into the seeding plate containing 44 μL cells (8-fold dilution spanning concentrations 25.0 μM to […], 0.25% DMSO final), and placed in a humidified tissue culture incubator at 37° C. After 96 hours, 25 μL of Cell Titer-Glo reagent (Promega) was added to each well using an Integra liquid handling system. The plate was protected from light using TopSeal-A (Black) film over the entire plate, added White Bottom seal film on the bottom of the entire plate for a better reading on the Envision, and placed on an IKA plate shaker for at 300 rpm for 10 minutes at room temperature. The plate was read on an EnVision plate reader (Perkin Elmer) using the Ultra Sensitive Luminescence protocol. Data analysis was performed by normalizing the raw luminescence units to an average of the positive control values for staurosporine (100% cell death) and the negative control values for DMSO (0% cell death). An IC50 was calculated using a 4-parameter logistic nonlinear regression model in GraphPad Prism.

METTL3/METTL14 = METTL3/METTL14 (Homo sapiens, UniProt Q86U44); test: METTL3-14 Standard Enzyme Assay (METTL3 biochemical assay)
METTL3/METTL14, sequence (Q86U44 whole entry, species assumed): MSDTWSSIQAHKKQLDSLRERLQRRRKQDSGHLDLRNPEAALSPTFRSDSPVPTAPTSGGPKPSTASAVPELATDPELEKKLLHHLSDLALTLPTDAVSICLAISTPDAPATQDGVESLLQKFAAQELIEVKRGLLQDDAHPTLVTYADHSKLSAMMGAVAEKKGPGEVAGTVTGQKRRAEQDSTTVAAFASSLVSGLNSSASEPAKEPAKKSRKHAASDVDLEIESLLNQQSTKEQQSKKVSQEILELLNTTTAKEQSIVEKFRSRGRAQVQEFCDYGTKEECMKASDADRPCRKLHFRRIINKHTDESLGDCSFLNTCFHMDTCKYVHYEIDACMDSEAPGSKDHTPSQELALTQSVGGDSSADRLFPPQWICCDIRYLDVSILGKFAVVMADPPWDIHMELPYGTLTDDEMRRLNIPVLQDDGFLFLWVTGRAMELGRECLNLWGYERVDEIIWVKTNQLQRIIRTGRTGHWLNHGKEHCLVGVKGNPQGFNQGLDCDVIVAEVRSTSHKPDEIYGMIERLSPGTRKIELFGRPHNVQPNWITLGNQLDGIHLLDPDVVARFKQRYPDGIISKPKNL
METTL3/METTL14, sequence (Q9HCE5 whole entry partner, species assumed): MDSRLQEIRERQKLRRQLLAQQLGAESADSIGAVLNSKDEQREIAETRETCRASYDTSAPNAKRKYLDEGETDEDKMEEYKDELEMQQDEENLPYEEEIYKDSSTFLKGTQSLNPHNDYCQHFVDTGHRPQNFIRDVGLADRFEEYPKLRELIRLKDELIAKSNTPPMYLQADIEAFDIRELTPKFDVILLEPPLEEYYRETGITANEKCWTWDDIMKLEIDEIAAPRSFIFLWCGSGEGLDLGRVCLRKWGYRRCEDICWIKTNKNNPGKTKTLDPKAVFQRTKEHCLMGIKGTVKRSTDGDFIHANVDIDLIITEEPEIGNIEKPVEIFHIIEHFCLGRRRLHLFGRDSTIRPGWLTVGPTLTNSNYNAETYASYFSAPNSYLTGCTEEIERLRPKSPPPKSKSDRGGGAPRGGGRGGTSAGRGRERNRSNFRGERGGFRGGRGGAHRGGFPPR
Outline: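 Tritium transfer from ³H-SAM (100 nM) to biotinylated RNA (100 nM) captured on streptavidin flashplates and counted by scintillation. Enzyme complex (2.5 nM) with compound, 5 min preincubation, 30 min reaction at ambient temperature, HEPES pH 7.5 buffer, stopped by excess unlabeled SAM.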

PRMT5-MEP50 = PRMT5-MEP50 (Homo sapiens, UniProt O14744); test: PRMT5 Assay (PRMT5 biochemical assay)
PRMT5-MEP50, sequence (O14744 whole entry): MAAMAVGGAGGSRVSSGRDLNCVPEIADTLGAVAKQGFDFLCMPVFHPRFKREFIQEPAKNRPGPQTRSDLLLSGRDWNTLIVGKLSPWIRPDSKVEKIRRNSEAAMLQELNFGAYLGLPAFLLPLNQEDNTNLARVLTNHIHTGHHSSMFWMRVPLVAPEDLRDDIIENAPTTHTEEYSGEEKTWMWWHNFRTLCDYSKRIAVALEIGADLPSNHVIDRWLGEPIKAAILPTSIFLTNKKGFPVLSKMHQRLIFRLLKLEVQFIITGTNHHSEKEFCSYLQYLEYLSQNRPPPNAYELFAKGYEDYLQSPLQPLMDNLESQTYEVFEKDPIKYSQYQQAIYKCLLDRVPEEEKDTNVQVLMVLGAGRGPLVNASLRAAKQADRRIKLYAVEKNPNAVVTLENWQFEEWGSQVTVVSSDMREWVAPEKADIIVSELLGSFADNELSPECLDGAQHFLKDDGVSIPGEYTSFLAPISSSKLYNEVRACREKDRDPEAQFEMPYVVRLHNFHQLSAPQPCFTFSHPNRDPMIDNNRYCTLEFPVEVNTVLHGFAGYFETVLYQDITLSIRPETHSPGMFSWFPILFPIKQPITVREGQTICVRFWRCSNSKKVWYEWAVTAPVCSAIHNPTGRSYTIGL
PRMT5-MEP50, sequence (Q9BQA1 whole entry partner): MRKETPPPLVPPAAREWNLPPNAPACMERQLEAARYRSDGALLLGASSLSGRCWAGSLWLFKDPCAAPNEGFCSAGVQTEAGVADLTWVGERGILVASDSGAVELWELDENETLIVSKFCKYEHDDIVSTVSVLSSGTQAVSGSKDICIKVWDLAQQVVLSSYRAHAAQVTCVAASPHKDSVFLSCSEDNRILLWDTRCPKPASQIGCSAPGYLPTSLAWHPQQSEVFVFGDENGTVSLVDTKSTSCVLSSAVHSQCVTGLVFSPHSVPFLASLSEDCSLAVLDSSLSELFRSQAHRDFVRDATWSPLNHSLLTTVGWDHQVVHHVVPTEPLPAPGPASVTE
Outline: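 Radiometric methyltransferase read-out: after 60 min reaction, excess unlabelled SAM (15 μM) stops turnover and biotinylated H4 peptide (100 nM) carrying 3H-methyl from 250 nM 3H-SAM is captured on streptavidin flashplates (2 h, 25° C) for scintillation counting. Enzyme, 2.5 nM PRMT5-MEP50, was preincubated 5 min with compound in pH 8.0 Tris buffer with DTT and Tween.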

METTL1/WDR4 = METTL1/WDR4 (Homo sapiens, UniProt Q9UBP6); test: METTL1 Assay (METTL1 biochemical assay)
METTL1/WDR4, sequence (Q9UBP6 whole entry, species assumed): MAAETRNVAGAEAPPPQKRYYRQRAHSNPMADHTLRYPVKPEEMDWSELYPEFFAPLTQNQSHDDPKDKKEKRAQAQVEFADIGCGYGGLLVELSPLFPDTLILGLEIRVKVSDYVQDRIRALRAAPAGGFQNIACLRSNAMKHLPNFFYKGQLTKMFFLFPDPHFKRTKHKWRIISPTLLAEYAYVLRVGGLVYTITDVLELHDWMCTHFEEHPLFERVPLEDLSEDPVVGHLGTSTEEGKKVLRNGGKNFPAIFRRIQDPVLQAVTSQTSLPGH
METTL1/WDR4, sequence (P57081 whole entry partner, species assumed): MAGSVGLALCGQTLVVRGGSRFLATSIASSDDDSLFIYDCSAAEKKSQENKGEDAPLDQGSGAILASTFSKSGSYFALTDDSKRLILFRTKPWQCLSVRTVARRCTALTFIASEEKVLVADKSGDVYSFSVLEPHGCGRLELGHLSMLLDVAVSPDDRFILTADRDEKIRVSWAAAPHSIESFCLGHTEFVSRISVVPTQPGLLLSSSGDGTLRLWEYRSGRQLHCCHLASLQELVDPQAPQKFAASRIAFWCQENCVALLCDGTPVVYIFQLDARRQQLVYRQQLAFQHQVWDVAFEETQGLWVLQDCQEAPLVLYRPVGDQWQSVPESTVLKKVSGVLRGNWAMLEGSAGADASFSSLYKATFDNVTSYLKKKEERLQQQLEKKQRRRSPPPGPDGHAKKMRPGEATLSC
Outline: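 Radiometric methyltransfer by METTL1/WDR4 (6.25 nM f.c., 5 min preincubation) at ambient temperature in HEPES pH 7.5, KCl, MgCl2, DTT; started with 25 nM 3′-biotinylated RNA and 60 nM 3H-SAM, run 20 min, quenched with 15 μM cold SAM. Product captured on streptavidin flashplates (2 h, 25° C), counted by scintillation.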

MOLM-13 cells [2] = test: MOLM-13 48 Hour Cell Proliferation Assay; format: cell-based; settings: Homo sapiens
Experimental: MOLM-13 (DSMZ) cells were seeded at 1000 cells per well in a volume of 44 μL in a Falcon 384-well tissue culture treated clear bottom microplate in RPMI 1640 media containing 10% fetal bovine serum using a Multidrop Combi (ThermoFisher Scientific). Cells were incubated overnight at 37° C. in a humidified tissue culture incubator. The Mosquito® HTS Liquid Handler was used to make a compound/media intermediate plate by aliquoting 1 μL of compound from the initial compound dilution plate (concentrations ranging from 10.0 mM to 38.0 nM in 100% DMSO) into a V bottom 384-well screen matrix plate containing 49 μL of media containing the appropriate serum (50-fold dilution, 2% DMSO). The Apricot liquid handling system was used to transfer 6.2 μL compounds from the intermediate plate into the Falcon 384-well tissue culture plate containing 44 μL cells (10-point, 4-fold dilution spanning concentrations 25.0 μM to […], 0.25% DMSO final), and placed in a humidified tissue culture incubator at 37° C. After 48 hours, 25 μL of Cell Titer-Glo reagent (Promega) was added to each well using a Multidrop Combi. The plate was protected from light and placed on an IKA plate shaker for at 300 rpm for 10 minutes at room temperature. The plate was read on an EnVision plate reader (Perkin Elmer) using the Ultra Sensitive Luminescence protocol. Data analysis was performed by normalizing the raw luminescence units to an average of the positive control values for staurosporine (100% cell death) and the negative control values for DMSO (0% cell death). An IC50 was calculated using a 4-parameter logistic nonlinear regression model in GraphPad Prism.

[3] = read-out: METTL3 IC50, METTL3 biochemical assay
[4] = read-out: PRMT5 IC50; PRMT5 biochemical assay
[5] = METTL1 biochemical assay; read-out: METTL1 IC50
[6] = METTL3 biochemical assay, read-out: METTL3 IC50
[7] = read-out: METTL1 IC50; METTL1 biochemical assay
[8] = PRMT5 biochemical assay; read-out: PRMT5 IC50

Row | SMILES | IC50 (MOLM-13 cells [1]) | IC50 (PRMT5-MEP50; [8]) | IC50 (MOLM-13 cells [2]) | IC50 (METTL3/METTL14) | other results
1 | CCn1ccc(-c2cn([C@@H]3O[C@H](COc4ccc5ccc(NC)nc5c4)[C@@H](O)[C@@H]3F)c3ncnc(N)c23)n1 [I-3] | < 1 µM |  |  |  | IC50 (METTL3/METTL14; [3]): < 0.01 µM; IC50 (PRMT5-MEP50; [4]): 0.01 to 0.1 µM
2 | CCNc1ccc2ccc(OC[C@H]3O[C@@H](n4cc(-c5ccn(C)n5)c5c(N)ncnc54)[C@@H](F)[C@@H]3O)cc2n1 [I-7] |  |  |  |  | IC50 (MOLM-13 cells [1]; MOLM-13, 96 h): < 1 µM; IC50 (METTL3/METTL14; [3]): < 0.01 µM; IC50 (METTL1/WDR4; [5]): > 1 µM; IC50 (PRMT5-MEP50; [4]): 0.01 to 0.1 µM
3 | CNc1ccc2cc(CC[C@H]3C[C@@H](n4ccc5c(N)ncnc54)[C@H](O)[C@@H]3O)ccc2n1 [I-111] |  | < 0.01 µM |  |  | IC50 (MOLM-13 cells [1]; MOLM-13, 96 h): 1 to 10 µM; IC50 (METTL3/METTL14; [6]): 0.1 to 1 µM; IC50 (METTL1/WDR4; [7]): > 1 µM
4 | Nc1ccc2cc(CC[C@H]3C[C@@H](n4ccc5c(N)ncnc54)[C@H](O)[C@@H]3O)ccc2n1 [I-125] |  | < 0.01 µM |  |  | IC50 (MOLM-13 cells [1]; MOLM-13, 96 h): 1 to 10 µM; IC50 (METTL3/METTL14; [6]): 0.1 to 1 µM; IC50 (METTL1/WDR4; [7]): > 1 µM
5 | Nc1ncnc2c1ccn2[C@@H]1C[C@H](CCc2ccc3nccnc3c2)[C@@H](O)[C@H]1O [I-130] |  | < 0.01 µM |  |  | IC50 (MOLM-13 cells [1]; MOLM-13, 96 h): < 1 µM; IC50 (METTL1/WDR4; [7]): > 1 µM
6 | CNc1ccc2ccc(OC[C@H]3O[C@@H](n4cc(CC5CC5)c5c(N)ncnc54)[C@H](O)[C@@H]3O)cc2n1 [I-142] |  | 0.01 to 0.1 µM | 1 to 10 µM |  | IC50 (METTL3/METTL14; [6]): < 0.01 µM; IC50 (METTL1/WDR4; [7]): > 1 µM
7 | CNc1ccc2ccc(OC[C@H]3O[C@@H](n4cc(-c5ccn(C6CCC6)n5)c5c(N)ncnc54)[C@@H](F)[C@@H]3O)cc2n1 [I-143] |  | 0.1 to 1 µM | 1 to 10 µM |  | IC50 (METTL3/METTL14; [6]): < 0.01 µM; IC50 (METTL1/WDR4; [5]): > 1 µM
8 | CNc1ccc2ccc(OC[C@H]3O[C@@H](n4cc(-c5ccn(C6COC6)n5)c5c(N)ncnc54)[C@@H](F)[C@@H]3O)cc2n1 [I-144] |  |  | 1 to 10 µM |  | IC50 (METTL3/METTL14; [3]): < 0.01 µM; IC50 (METTL1/WDR4; [5]): > 1 µM; IC50 (PRMT5-MEP50; [4]): 0.1 to 1 µM
9 | CCc1cc(N(C)C)c2ccc(OC[C@H]3O[C@@H](n4cc(-c5ccn(C)n5)c5c(N)ncnc54)[C@@H](F)[C@@H]3O)cc2n1 [I-153] | < 1 µM |  | 1 to 10 µM | < 0.01 µM | 
10 | CCc1cc(N(C)C2CC2)c2ccc(OC[C@H]3O[C@@H](n4cc(-c5ccn(C)n5)c5c(N)ncnc54)[C@@H](F)[C@@H]3O)cc2n1 [I-154] | 1 to 10 µM |  | 1 to 10 µM | < 0.01 µM | 
11 | CCc1cc(N(C)CC2CC2)c2ccc(OC[C@H]3O[C@@H](n4cc(-c5ccn(C)n5)c5c(N)ncnc54)[C@@H](F)[C@@H]3O)cc2n1 [I-155] | < 1 µM |  | 1 to 10 µM | < 0.01 µM | 
12 | CCc1cc(N2CCOCC2)c2ccc(OC[C@H]3O[C@@H](n4cc(-c5ccn(C)n5)c5c(N)ncnc54)[C@@H](F)[C@@H]3O)cc2n1 [I-156] | < 1 µM |  | 1 to 10 µM | < 0.01 µM | 
13 | CCc1cc(NCCOC)c2ncc(OC[C@H]3O[C@@H](n4cc(-c5ccn(C)n5)c5c(N)ncnc54)[C@H](O)[C@@H]3O)cc2n1 [I-159] | 1 to 10 µM |  | > 10 µM | < 0.01 µM | 
14 | CCc1cc(N(C)C2CC2)c2ccc(OC[C@H]3O[C@@H](n4cc(-c5ccn(C)n5)c5c(N)ncnc54)C[C@@H]3O)cc2n1 [I-160] | 1 to 10 µM |  | 1 to 10 µM | < 0.01 µM | 
